Data set [1] deals with A549 NRF2-ARE-Fluc stable cell line. As to the kind of experiment: A549 Nrf2 assay: NRF2-ARE firefly luciferase reporter gene assay. The note with it: Homo sapiens, read-out: Potency of inhibition, A549. The data set is classed as cell-based. In outline:
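A549 cells (Keap1 loss-of-function, constitutive NRF2) stably carrying ARE-driven firefly luciferase; compound treatment 18–24 h at 37 °C, 0.46% DMSO final.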
For orientation: A reporter such as luciferase makes a cellular process visible.

For data set [2], the system named is Rhabdomyosarcoma cells (Rh30). Briefly: Growth of rhabdomyosarcoma cells (clonogenic / soft agar). The format is cell-based. The note with it: for Growth of rhabdomyosarcoma cells, clonogenic assay, single agent: single agents. Here is the method:
(§1) (A) Ewing sarcoma cells (A4573) cells were on soft agar and treated with doxorubicin (2 nM) singly or in combination with compound 4 (10 μM) for 72 h. At the end of treatment, regular growth media was added and cells were further incubated for 8-10 days and colonies were stained with crystal violet and counted. (B) Rhabdomyosarcoma cells (Rh30) cells were on soft agar and treated with doxorubicin (2 nM) and etoposide (5-nM) singly or in combination with compound 4 (10 μM) for 72 h. At the end of treatment, regular growth media was added and cells were further incubated for 8-10 days and colonies were stained with crystal violet and counted;
(§2) For the clonogenic assays, 1,000 cells/well were plated in a 6-well plate. The next day, the cells were treated with vehicle (DMSO), Nrf2 inhibitor, a chemotherapeutic drug, or a combination of Nrf2 and chemotherapeutic drugs for 48 hrs. The drug containing media was then replaced with regular growth media and the cells were incubated for an additional 10 days. At the end of incubation period, the colonies were stained with Crystal Violet and imaged.

The next data set deals with H460 lung cancer cells. Briefly: Clonogenic assay in H460 lung cancer cells. The format is cell-based. The note with it: for Cytotoxicity of chemotherapeutic drugs in combination with the compound, clonogenic assay: H460 cells, combination with chemotherapeutic drug. The method, then: (§3) (A) H460, a NSCLC with a point mutation in KEAP1, is more sensitive to compound 4 than H460-KEAP1 Knock-in H460 cells expressing WT KEAP1. The cells were incubated with the inhibitor for 48 h. Colonies were stained with crystal violet staining and manually counted. (B-C) A549 and H460 cells were treated with different concentrations of paclitaxel, doxorubicin and carboplatin singly or in combination with compound 4 for 72 h. At the end of treatment, regular growth media was added and cells were further incubated for 8-10 days and stained with crystal violet. […] Cells treated with Chemo drug alone or a combination of compound 4 and chemo drug were incubated with luminogenic caspase substrate and change in luminescence was measured. Caspase activity was normalized to the number of viable cells using CellTiter-Blue assay.
as §2

The test system of data set [3] is mRNA expression of Nrf2 and its downstream target genes, GCLm and NQO1, H1437 cells. As to the kind of experiment: Real time RT-PCR of Nrf2 and downstream target genes in H1437 cells. The data set is classed as cell-based. The method, then: For the real time reverse transcription polymerase chain reaction (RT-PCR) assay, cells were treated with Nrf2 inhibitors for 36-48 hrs, followed by total RNA isolation. The mRNA expression of Nrf2 and its downstream target genes, GCLm and NQO1 was measured by RT-PCR. (NC means no significant change in gene expression in comparison with vehicle group; M represents the concentration of drug used in the gene expression studies and it is twice the IC50 values generated from primary screening with A549-ARE reporter cell lines).
For orientation: Real-time PCR tracks product formation cycle by cycle.

In data set [4] the test system is Ewing sarcoma cells (A4573). As to the kind of experiment: Soft agar colony assay in Ewing sarcoma cells. The data set is classed as cell-based. Conditions: 72 h. Here is the method:
as §1

Data set [5] has as its system Caspase 3/7 activity, H460 cells. Briefly: Caspase 3/7 activity in H460 cells. The format is cell-based. The note with it: combination of compound and chemo drug. The method, then:
as §3

Data set [6] has as its system orthotopic lung tumor model. Briefly: Orthotopic lung tumor model, NSCLC xenograft. The data set is classed as in vivo, Mice. The note with it: three weeks post-treatment; single agent and combination with carboplatin. Here is the method: A549 cells were injected in the flanks of athymic nude mice and once tumor volume reached 50-100 mm^3, treatment was initiated. Vehicle, carboplatin (5 mg/kg daily Monday to Friday), compound 4 (30 mg/kg daily Monday to Friday) or a combination of compound 4 and carboplatin was administered for three weeks. Values represent tumor volume ±s.e.m. for all groups (A). […] Tumors were excised and weight at the end of treatment period. […] For each group, pretreatment available lung volume was defined as 100% and compared with post-treatment lung volumes. Mice in the vehicle treated group died at 3 weeks;

Data set [7] deals with orthotopic lung tumor model (large cell model). Briefly: Orthotopic lung tumor model (large cell model). The data set is classed as in vivo, Mice. The note with it: two weeks post-treatment; single agent and combination with carboplatin. The text has this:
For each group, pretreatment available lung volume was defined as 100% and compared with post-treatment lung volumes.

Entries after “also recorded” stand apart in the source; their conditions may differ. Bounds are passed on as bounds.

Turning to `O=C(Nc1ncc(Cc2ccc(C(F)(F)F)cc2)s1)c1ccc(-c2cccc([N+](=O)[O-])c2)o1` [Compound 1], in data set [1], the IC50 lay within 5 to 25 µM. Further, the “Growth of rhabdomyosarcoma cells, clonogenic assay, single agent” value (from here on “Growth of rhabdomyosarcoma cells”) in data set [2] was “suppress growth of rhabdomyosarcoma cells”.

`CC1(C)CC2CC(C)(CN2S(=O)(=O)c2ccc(C(=O)Nc3ccc(Cl)c(S(=O)(=O)N4CCOCC4)c3)cc2)C1` (stereo not drawn) [compound 3]: the “Cytotoxicity of chemotherapeutic drugs in combination with the compound, clonogenic assay” value in the data set on H460 lung cancer cells is given as “enhance the cytotoxicity of standard care chemotherapeutic drugs”. The IC50 in data set [1] is less than 5 µM. For the same compound, the “Nrf2 (and GCLm, NQO1) expression, real time PCR based validation” value in data set [3] was “inhibit Nrf2 expression”. In addition, in data set [2], the “Growth of rhabdomyosarcoma cells” value is recorded as “suppress growth of rhabdomyosarcoma cells”.

For `Cc1ccccc1C(=O)N1CCc2cc(-c3nc(NC(=O)Cc4ccc5c(c4)OCO5)sc3C)ccc21` [compound 4], the “Colony growth of A4573 cells on soft agar, combination” value in data set [4] (10 μM with doxorubicin (2 nM)) was “potentiates the cytotoxicity of standard care chemotherapy drugs”. Further, the “Colony growth of A4573 cells on soft agar, single agent” value in data set [4] (10 μM) is given as “significant growth inhibitory activity as single agent”. Moreover, the “Caspase 3/7 activity” value in data set [5] is recorded as “increased Caspase 3/7 activity”. In addition, the “Selective toxicity: H460 (KEAP1 point mutation) versus H460-KEAP1 Knock-in cells expressing WT KEAP1” value with H460 lung cancer cells (48 h, colonies counted) is “selectively toxic to cells with KEAP1 mutations”. In the data set on H460 lung cancer cells, the “Cytotoxicity of chemotherapeutic drugs in combination with the compound, clonogenic assay” value was “enhance the cytotoxicity of the chemotherapeutic drug paclitaxel; also recorded: potentiates the toxicity of standard care chemotherapy drugs”. Also, the “Tumor free lung volume, orthotopic lung tumor model” value was “shows anti-tumor efficacy as a single agent and in combination with carboplatin” in data set [6]; “shows anti-tumor efficacy as a single agent and in combination with carboplatin” in data set [7]. In data set [1], the IC50 is less than 5 µM. In data set [3], the “Nrf2 (and GCLm, NQO1) expression, real time PCR based validation” value was “significant reduction in Nrf2, GCLm, and NQO1 expression”. In addition, the “Colony growth of Rh30 cells on soft agar, combination” value in data set [2] (10 μM with doxorubicin (2 nM) and etoposide, 72 h) is “potentiates the cytotoxicity of standard care chemotherapy drugs”. Also, the “Colony growth of Rh30 cells on soft agar, single agent” value in data set [2] (10 μM, 72 h) was “significant growth inhibitory activity as single agent”. Besides, in data set [2], the “Growth of rhabdomyosarcoma cells” value is recorded as “suppress growth of rhabdomyosarcoma cells”.

Source of the values: patent US20160046616A1, “NRF2 SMALL MOLECULE INHIBITORS FOR CANCER THERAPY” (THE JOHNS HOPKINS UNIVERSITY, priority 2013, published 2016).
